Key:
Format in all cases: in vivo
[1] = test system: corn (Zea mays); assay: Test A postemergence, visual injury rating; conditions: 0 is no effect, 100 is complete control; for Corn plant response rating: 0 to 100 scale, approximately 10 days
Summary of the method: (§1)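 Injury scores run from 0, no effect, to 100, complete control, judged by eye against untreated plants roughly 10 days after treatment. Chemicals carried a surfactant in a non-phytotoxic solvent and went onto loam–sand soil preemergence or onto one- to two-leaf seedlings postemergence.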

[2] = test system: ragweed (common ragweed, Ambrosia elatior); assay: Test A postemergence, visual injury rating; conditions: 0 is no effect, 100 is complete control; for Ragweed plant response rating: 0 to 100 scale, approximately 10 days
Summary of the method: as §1

[3] = test system: blackgrass (Alopecurus myosuroides); assay: Test A postemergence, visual injury rating; conditions: 0 is no effect, 100 is complete control; for Blackgrass plant response rating: 0 to 100 scale, approximately 10 days
Summary of the method: as §1

[4] = test system: barnyardgrass (Echinochloa crus-galli); assay: Test A postemergence, visual injury rating; conditions: 0 is no effect, 100 is complete control; for Barnyardgrass plant response rating: 0 to 100 scale, approximately 10 days
Summary of the method: as §1

[5] = test system: Italian ryegrass (Lolium multiflorum); assay: Test A postemergence, visual injury rating; conditions: 0 is no effect, 100 is complete control; for Ryegrass, Italian plant response rating: 0 to 100 scale, approximately 10 days
Summary of the method: as §1

[6] = test system: pigweed (Amaranthus retroflexus); assay: Test A postemergence, visual injury rating; conditions: 0 is no effect, 100 is complete control; for Pigweed plant response rating: 0 to 100 scale, approximately 10 days
Summary of the method: as §1

[7] = test system: kochia (Kochia scoparia); assay: Test A postemergence, visual injury rating; conditions: 0 is no effect, 100 is complete control; for Kochia plant response rating: 0 to 100 scale, approximately 10 days
Summary of the method: as §1

[8] = test system: giant foxtail (Setaria faberii); assay: Test A postemergence, visual injury rating; conditions: 0 is no effect, 100 is complete control; for Foxtail, Giant plant response rating: 0 to 100 scale, approximately 10 days
Summary of the method: as §1

[9] = test system: wheat (Triticum aestivum); assay: Test A postemergence, visual injury rating; conditions: 0 is no effect, 100 is complete control; for Wheat plant response rating: 0 to 100 scale, approximately 10 days
Summary of the method: as §1

[10] = test system: galium (catchweed bedstraw, Galium aparine); assay: Test A postemergence, visual injury rating; conditions: 0 is no effect, 100 is complete control; for Galium plant response rating: 0 to 100 scale, approximately 10 days
Summary of the method: as §1

[11] = test system: ragweed (common ragweed, Ambrosia elatior); assay: Test A preemergence, visual injury rating
Summary of the method: as §1

[12] = test system: barnyardgrass (Echinochloa crus-galli); assay: Test A preemergence, visual injury rating
Summary of the method: as §1

[13] = test system: Italian ryegrass (Lolium multiflorum); assay: Test A preemergence, visual injury rating
Summary of the method: as §1

[14] = test system: pigweed (Amaranthus retroflexus); assay: Test A preemergence, visual injury rating
Summary of the method: as §1

[15] = test system: kochia (Kochia scoparia); assay: Test A preemergence, visual injury rating
Summary of the method: as §1

[16] = test system: giant foxtail (Setaria faberii); assay: Test A preemergence, visual injury rating
Summary of the method: as §1

[17] = test system: barnyardgrass (Echinochloa crus-galli); assay: Test B flooded paddy test, plant response rating; conditions: 250 g ai/ha; Flood; scale of 0 to 100 where 0 is no effect and 100 is complete control; 13 to 15 days
Summary of the method: (§2)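 Test compounds are applied straight into paddy water held 3 cm above the soil surface, with that flood maintained for the whole test. After 13 to 15 days in the greenhouse, each species is scored visually relative to controls.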

[18] = test system: sedge, umbrella (small-flower umbrella sedge, Cyperus difformis); assay: Test B flooded paddy test, plant response rating; conditions: 250 g ai/ha; Flood; scale of 0 to 100 where 0 is no effect and 100 is complete control; 13 to 15 days
Summary of the method: as §2

[19] = test system: rice (Oryza sativa); assay: Test B flooded paddy test, plant response rating; conditions: 250 g ai/ha; Flood; scale of 0 to 100 where 0 is no effect and 100 is complete control; 13 to 15 days
Summary of the method: as §2

[20] = test system: ducksalad (Heteranthera limosa); assay: Test B flooded paddy test, plant response rating; conditions: 250 g ai/ha; Flood; scale of 0 to 100 where 0 is no effect and 100 is complete control; 13 to 15 days
Summary of the method: as §2

[21] = 31 g ai/ha, 0 to 100 scale, 0 no effect, 100 complete control
[22] = 125 g ai/ha, 0 to 100 scale (0 no effect, 100 complete control)
[23] = 500 g ai/ha, 0 to 100 scale (0 no effect, 100 complete control)

CC(=NOC(C)C)c1c(Br)cccc1Oc1ncc(Cl)cn1 [Compound 105]
Corn plant response rating ([1]; 31 g ai/ha): 0 | Corn plant response rating ([1]; 125 g ai/ha): 0 | Ragweed plant response rating ([2]; 31 g ai/ha): 0 | Ragweed plant response rating ([2]; 125 g ai/ha): 0 | Blackgrass plant response rating ([3]; 31 g ai/ha): 0 | Blackgrass plant response rating ([3]; 125 g ai/ha): 10 | Barnyardgrass plant response rating ([4]; 31 g ai/ha): 0 | Barnyardgrass plant response rating ([4]; 125 g ai/ha): 0 | Ryegrass, Italian plant response rating ([5]; 31 g ai/ha): 0 | Ryegrass, Italian plant response rating ([5]; 125 g ai/ha): 0 | Pigweed plant response rating ([6]; 31 g ai/ha): 10 | Pigweed plant response rating ([6]; 125 g ai/ha): 30 | Kochia plant response rating ([7]; 31 g ai/ha): 0 | Kochia plant response rating ([7]; 125 g ai/ha): 10 | Foxtail, Giant plant response rating ([8]; 31 g ai/ha): 0 | Foxtail, Giant plant response rating ([8]; 125 g ai/ha): 0 | Wheat plant response rating ([9]; 31 g ai/ha): 0 | Wheat plant response rating ([9]; 125 g ai/ha): 0 | Galium plant response rating ([10]; 31 g ai/ha): 10 | Galium plant response rating ([10]; 125 g ai/ha): 20 | Plant response rating, Ragweed [11, 21]: 0 | Plant response rating, Ragweed [11, 22]: 0 | Plant response rating, Barnyardgrass [12, 21]: 0 | Barnyardgrass plant response rating [12, 22]: 30 | Plant response rating, Ryegrass, Italian [13, 21]: 0 | Plant response rating, Ryegrass, Italian [13, 22]: 0 | Plant response rating, Pigweed [14, 21]: 0 | Plant response rating, Pigweed [14, 22]: 20 | Plant response rating, Kochia [15, 21]: 0 | Plant response rating, Kochia [15, 22]: 0 | Plant response rating, Foxtail, Giant [16, 21]: 0 | Plant response rating, Foxtail, Giant [16, 22]: 20 | Plant response rating, Barnyardgrass [17]: 0 | Plant response rating, Sedge, Umbrella [18]: 0 | Plant response rating, Rice [19]: 0 | Plant response rating, Ducksalad [20]: 40

CCCCC(C#N)c1c(Br)cccc1Oc1ncc(Cl)cn1 (stereo not drawn) [Compound 114]
Corn plant response rating ([1]; 31 g ai/ha): 10 | Corn plant response rating ([1]; 125 g ai/ha): 20 | Ragweed plant response rating ([2]; 31 g ai/ha): 0 | Ragweed plant response rating ([2]; 125 g ai/ha): 20 | Blackgrass plant response rating ([3]; 31 g ai/ha): 0 | Blackgrass plant response rating ([3]; 125 g ai/ha): 10 | Barnyardgrass plant response rating ([4]; 31 g ai/ha): 0 | Barnyardgrass plant response rating ([4]; 125 g ai/ha): 10 | Ryegrass, Italian plant response rating ([5]; 31 g ai/ha): 0 | Ryegrass, Italian plant response rating ([5]; 125 g ai/ha): 10 | Pigweed plant response rating ([6]; 31 g ai/ha): 50 | Pigweed plant response rating ([6]; 125 g ai/ha): 100 | Kochia plant response rating ([7]; 31 g ai/ha): 20 | Kochia plant response rating ([7]; 125 g ai/ha): 80 | Foxtail, Giant plant response rating ([8]; 31 g ai/ha): 0 | Foxtail, Giant plant response rating ([8]; 125 g ai/ha): 20 | Wheat plant response rating ([9]; 31 g ai/ha): 0 | Wheat plant response rating ([9]; 125 g ai/ha): 10 | Galium plant response rating ([10]; 31 g ai/ha): 50 | Galium plant response rating ([10]; 125 g ai/ha): 80 | Plant response rating, Ragweed [11, 21]: 20 | Plant response rating, Ragweed [11, 22]: 80 | Plant response rating, Barnyardgrass [12, 21]: 0 | Plant response rating, Barnyardgrass [12, 22]: 20 | Plant response rating, Ryegrass, Italian [13, 21]: 0 | Plant response rating, Ryegrass, Italian [13, 22]: 0 | Plant response rating, Pigweed [14, 21]: 0 | Plant response rating, Pigweed [14, 22]: 30 | Plant response rating, Kochia [15, 21]: 0 | Plant response rating, Kochia [15, 22]: 10 | Plant response rating, Foxtail, Giant [16, 21]: 10 | Plant response rating, Foxtail, Giant [16, 22]: 90 | Plant response rating, Barnyardgrass [17]: 0 | Plant response rating, Sedge, Umbrella [18]: 90 | Plant response rating, Rice [19]: 0 | Plant response rating, Ducksalad [20]: 40

CCC(C)OC(=O)c1c(Br)cccc1Oc1ncc(Cl)cn1 (stereo not drawn) [Compound 84]
Corn plant response rating ([1]; 125 g ai/ha): 10 | Corn plant response rating (0 to 100 scale) ([1]; 500 g ai/ha): 40 | Ragweed plant response rating ([2]; 125 g ai/ha): 0 | Ragweed plant response rating (0 to 100 scale) ([2]; 500 g ai/ha): 0 | Blackgrass plant response rating ([3]; 125 g ai/ha): 0 | Blackgrass plant response rating (0 to 100 scale) ([3]; 500 g ai/ha): 0 | Barnyardgrass plant response rating ([4]; 125 g ai/ha): 0 | Barnyardgrass plant response rating (0 to 100 scale) ([4]; 500 g ai/ha): 40 | Ryegrass, Italian plant response rating ([5]; 125 g ai/ha): 0 | Ryegrass, Italian plant response rating (0 to 100 scale) ([5]; 500 g ai/ha): 0 | Pigweed plant response rating ([6]; 125 g ai/ha): 30 | Pigweed plant response rating (0 to 100 scale) ([6]; 500 g ai/ha): 70 | Kochia plant response rating ([7]; 125 g ai/ha): 30 | Kochia plant response rating (0 to 100 scale) ([7]; 500 g ai/ha): 70 | Foxtail, Giant plant response rating ([8]; 125 g ai/ha): 0 | Foxtail, Giant plant response rating (0 to 100 scale) ([8]; 500 g ai/ha): 60 | Wheat plant response rating ([9]; 125 g ai/ha): 0 | Wheat plant response rating (0 to 100 scale) ([9]; 500 g ai/ha): 20 | Galium plant response rating ([10]; 125 g ai/ha): 30 | Galium plant response rating (0 to 100 scale) ([10]; 500 g ai/ha): 40 | Ragweed plant response rating [11, 22]: 0 | Ragweed plant response rating [11, 23]: 0 | Barnyardgrass plant response rating [12, 22]: 0 | Barnyardgrass plant response rating [12, 23]: 90 | Ryegrass, Italian plant response rating [13, 22]: 0 | Ryegrass, Italian plant response rating [13, 23]: 0 | Pigweed plant response rating [14, 22]: 0 | Pigweed plant response rating [14, 23]: 100 | Kochia plant response rating [15, 22]: 0 | Kochia plant response rating [15, 23]: 0 | Foxtail, Giant plant response rating [16, 22]: 0 | Foxtail, Giant plant response rating [16, 23]: 100 | Plant response rating, Barnyardgrass [17]: 0 | Plant response rating, Sedge, Umbrella [18]: 0 | Plant response rating, Rice [19]: 0 | Plant response rating, Ducksalad [20]: 0
